According to patent US10765114B2, “4-amino-6-(pyridyl and 2-substitutedphenyl)-picolinates and 6-amino-2-(pyridyl and 2-substitutedphenyl)-pyrimidine-4-carboxylates and their use as herbicides” (Dow AgroSciences LLC, priority 2013, dated 2020):

Tested on: Key Broadleaf Weed and Crop Species
Experiment: Post-Emergent Test II (Table 5)
Type: in vivo
Conditions: Abutilon theophrasti, post-emergence, 336 h, ABUTH: velvetleaf (Abutilon theophrasti), application rate 70 (kg ai/ha; footnote: g ai/ha), read-out: Visual Growth Reduction (%) 14 Days After Application ABUTH
Method in brief: (§1)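 Visual injury ratings (0 = no injury, 100 = complete kill) taken 14 days after treatment, relative to untreated controls. Compounds, in an acetone/DMSO aqueous carrier with crop oil and surfactant, were applied by track sprayer at 187 L/ha, in a twofold dilution series from the top rate, to plants at the first to second true-leaf stage.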

| Compound | pest or weed control at 70 g/ha [%] |
| --- | --- |
| COC(=O)c1nc(-c2ccc(C(F)(F)F)nc2F)nc(N)c1Cl [Compound 47] | 0 to 29 |

Same assay, conditions: Abutilon theophrasti, post-emergence, 336 h, ABUTH: velvetleaf (Abutilon theophrasti), application rate 140 (kg ai/ha; footnote: g ai/ha), read-out: Visual Growth Reduction (%) 14 Days After Application ABUTH

| Compound | pest or weed control at 140 g/ha [%] |
| --- | --- |
| COC(=O)c1nc(-c2ccc(C(F)(F)F)nc2F)nc(N)c1Cl [Compound 47] | 0 to 29 |

Same assay, conditions: Amaranthus retroflexus, post-emergence, 336 h, AMARE: redroot pigweed (Amaranthus retroflexus), application rate 70 (kg ai/ha; footnote: g ai/ha), read-out: Visual Growth Reduction (%) 14 Days After Application AMARE

| Compound | pest or weed control at 70 g/ha [%] |
| --- | --- |
| COC(=O)c1nc(-c2ccc(C(F)(F)F)nc2F)nc(N)c1Cl [Compound 47] | 0 to 29 |

Same assay, conditions: Amaranthus retroflexus, post-emergence, 336 h, AMARE: redroot pigweed (Amaranthus retroflexus), application rate 140 (kg ai/ha; footnote: g ai/ha), read-out: Visual Growth Reduction (%) 14 Days After Application AMARE

| Compound | pest or weed control at 140 g/ha [%] |
| --- | --- |
| COC(=O)c1nc(-c2ccc(C(F)(F)F)nc2F)nc(N)c1Cl [Compound 47] | 0 to 29 |

Same assay, conditions: Brassica napus, post-emergence, 336 h, BRSSS: oilseed rape, canola (Brassica napus), application rate 70 (kg ai/ha; footnote: g ai/ha), read-out: Visual Growth Reduction (%) 14 Days After Application BRSSS

| Compound | pest or weed control at 70 g/ha [%] |
| --- | --- |
| COC(=O)c1nc(-c2ccc(C(F)(F)F)nc2F)nc(N)c1Cl [Compound 47] | 0 to 29 |

Same assay, conditions: Brassica napus, post-emergence, 336 h, BRSSS: oilseed rape, canola (Brassica napus), application rate 140 (kg ai/ha; footnote: g ai/ha), read-out: Visual Growth Reduction (%) 14 Days After Application BRSSS

| Compound | pest or weed control at 140 g/ha [%] |
| --- | --- |
| COC(=O)c1nc(-c2ccc(C(F)(F)F)nc2F)nc(N)c1Cl [Compound 47] | 0 to 29 |

Same assay, conditions: Chenopodium album, post-emergence, 336 h, CHEAL: lambsquarters (Chenopodium album), application rate 70 (kg ai/ha; footnote: g ai/ha), read-out: Visual Growth Reduction (%) 14 Days After Application CHEAL

| Compound | pest or weed control at 70 g/ha [%] |
| --- | --- |
| COC(=O)c1nc(-c2ccc(C(F)(F)F)nc2F)nc(N)c1Cl [Compound 47] | 0 to 29 |

Same assay, conditions: Chenopodium album, post-emergence, 336 h, CHEAL: lambsquarters (Chenopodium album), application rate 140 (kg ai/ha; footnote: g ai/ha), read-out: Visual Growth Reduction (%) 14 Days After Application CHEAL

| Compound | pest or weed control at 140 g/ha [%] |
| --- | --- |
| COC(=O)c1nc(-c2ccc(C(F)(F)F)nc2F)nc(N)c1Cl [Compound 47] | 45 to 59 |

Same assay, conditions: Euphorbia heterophylla, post-emergence, 336 h, EPHHL: wild poinsettia (Euphorbia heterophylla), application rate 70 (kg ai/ha; footnote: g ai/ha), read-out: Visual Growth Reduction (%) 14 Days After Application EPHHL

| Compound | pest or weed control at 70 g/ha [%] |
| --- | --- |
| COC(=O)c1nc(-c2ccc(C(F)(F)F)nc2F)nc(N)c1Cl [Compound 47] | 0 to 29 |

Same assay, conditions: Euphorbia heterophylla, post-emergence, 336 h, EPHHL: wild poinsettia (Euphorbia heterophylla), application rate 140 (kg ai/ha; footnote: g ai/ha), read-out: Visual Growth Reduction (%) 14 Days After Application EPHHL

| Compound | pest or weed control at 140 g/ha [%] |
| --- | --- |
| COC(=O)c1nc(-c2ccc(C(F)(F)F)nc2F)nc(N)c1Cl [Compound 47] | 0 to 29 |

Same assay, conditions: Helianthus annuus, post-emergence, 336 h, HELAN: sunflower (Helianthus annuus), application rate 70 (kg ai/ha; footnote: g ai/ha), read-out: Visual Growth Reduction (%) 14 Days After Application HELAN

| Compound | pest or weed control at 70 g/ha [%] |
| --- | --- |
| COC(=O)c1nc(-c2ccc(C(F)(F)F)nc2F)nc(N)c1Cl [Compound 47] | 0 to 29 |

Same assay, conditions: Helianthus annuus, post-emergence, 336 h, HELAN: sunflower (Helianthus annuus), application rate 140 (kg ai/ha; footnote: g ai/ha), read-out: Visual Growth Reduction (%) 14 Days After Application HELAN

| Compound | pest or weed control at 140 g/ha [%] |
| --- | --- |
| COC(=O)c1nc(-c2ccc(C(F)(F)F)nc2F)nc(N)c1Cl [Compound 47] | 0 to 29 |

Same assay, conditions: Viola tricolor, post-emergence, 336 h, VIOTR: wild pansy (Viola tricolor), application rate 70 (kg ai/ha; footnote: g ai/ha), read-out: Visual Growth Reduction (%) 14 Days After Application VIOTR

| Compound | pest or weed control at 70 g/ha [%] |
| --- | --- |
| COC(=O)c1nc(-c2ccc(C(F)(F)F)nc2F)nc(N)c1Cl [Compound 47] | 0 to 29 |

Same assay, conditions: Viola tricolor, post-emergence, 336 h, VIOTR: wild pansy (Viola tricolor), application rate 140 (kg ai/ha; footnote: g ai/ha), read-out: Visual Growth Reduction (%) 14 Days After Application VIOTR

| Compound | pest or weed control at 140 g/ha [%] |
| --- | --- |
| COC(=O)c1nc(-c2ccc(C(F)(F)F)nc2F)nc(N)c1Cl [Compound 47] | 0 to 29 |

Tested on: Key Grass and Sedge Weeds as well as Grass Crops
Experiment: Post-Emergent Test II (Table 6)
Type: in vivo
Conditions: post-emergence, 336 h, CYPSS, 70 g ai/ha, 14 days after application, read-out: Visual Growth Reduction (%) 14 Days After Application CYPSS
Method in brief: as §1

| Compound | pest or weed control at 70 g/ha [%] |
| --- | --- |
| COC(=O)c1nc(-c2ccc(C(F)(F)F)nc2F)nc(N)c1Cl [Compound 47] | 0 to 29 |

Same assay, conditions: post-emergence, 336 h, CYPSS, 140 g ai/ha, 14 days after application, read-out: Visual Growth Reduction (%) 14 Days After Application CYPSS

| Compound | pest or weed control at 140 g/ha [%] |
| --- | --- |
| COC(=O)c1nc(-c2ccc(C(F)(F)F)nc2F)nc(N)c1Cl [Compound 47] | 0 to 29 |

Same assay, conditions: post-emergence, 336 h, DIGSA: crabgrass (Digitaria sanguinalis), 70 g ai/ha, 14 days after application, read-out: Visual Growth Reduction (%) 14 Days After Application DIGSA

| Compound | pest or weed control at 70 g/ha [%] |
| --- | --- |
| COC(=O)c1nc(-c2ccc(C(F)(F)F)nc2F)nc(N)c1Cl [Compound 47] | 0 to 29 |

Same assay, conditions: post-emergence, 336 h, DIGSA: crabgrass (Digitaria sanguinalis), 140 g ai/ha, 14 days after application, read-out: Visual Growth Reduction (%) 14 Days After Application DIGSA

| Compound | pest or weed control at 140 g/ha [%] |
| --- | --- |
| COC(=O)c1nc(-c2ccc(C(F)(F)F)nc2F)nc(N)c1Cl [Compound 47] | 0 to 29 |

Same assay, conditions: post-emergence, 336 h, ECHSS, 70 g ai/ha, 14 days after application, read-out: Visual Growth Reduction (%) 14 Days After Application ECHSS

| Compound | pest or weed control at 70 g/ha [%] |
| --- | --- |
| COC(=O)c1nc(-c2ccc(C(F)(F)F)nc2F)nc(N)c1Cl [Compound 47] | 0 to 29 |

Same assay, conditions: post-emergence, 336 h, ECHSS, 140 g ai/ha, 14 days after application, read-out: Visual Growth Reduction (%) 14 Days After Application ECHSS

| Compound | pest or weed control at 140 g/ha [%] |
| --- | --- |
| COC(=O)c1nc(-c2ccc(C(F)(F)F)nc2F)nc(N)c1Cl [Compound 47] | 0 to 29 |

Same assay, conditions: post-emergence, 336 h, ORYSS (crop), 70 g ai/ha, 14 days after application, read-out: Visual Growth Reduction (%) 14 Days After Application ORYSS

| Compound | pest or weed control at 70 g/ha [%] |
| --- | --- |
| COC(=O)c1nc(-c2ccc(C(F)(F)F)nc2F)nc(N)c1Cl [Compound 47] | 0 to 29 |

Same assay, conditions: post-emergence, 336 h, ORYSS (crop), 140 g ai/ha, 14 days after application, read-out: Visual Growth Reduction (%) 14 Days After Application ORYSS

| Compound | pest or weed control at 140 g/ha [%] |
| --- | --- |
| COC(=O)c1nc(-c2ccc(C(F)(F)F)nc2F)nc(N)c1Cl [Compound 47] | 0 to 29 |

Same assay, conditions: post-emergence, 336 h, SETFA: giant foxtail (Setaria faberi), 70 g ai/ha, 14 days after application, read-out: Visual Growth Reduction (%) 14 Days After Application SETFA

| Compound | pest or weed control at 70 g/ha [%] |
| --- | --- |
| COC(=O)c1nc(-c2ccc(C(F)(F)F)nc2F)nc(N)c1Cl [Compound 47] | 0 to 29 |

Same assay, conditions: post-emergence, 336 h, SETFA: giant foxtail (Setaria faberi), 140 g ai/ha, 14 days after application, read-out: Visual Growth Reduction (%) 14 Days After Application SETFA

| Compound | pest or weed control at 140 g/ha [%] |
| --- | --- |
| COC(=O)c1nc(-c2ccc(C(F)(F)F)nc2F)nc(N)c1Cl [Compound 47] | 0 to 29 |

Same assay, conditions: post-emergence, 336 h, SORVU: grain sorghum (Sorghum vulgare), 70 g ai/ha, 14 days after application, read-out: Visual Growth Reduction (%) 14 Days After Application SORVU

| Compound | pest or weed control at 70 g/ha [%] |
| --- | --- |
| COC(=O)c1nc(-c2ccc(C(F)(F)F)nc2F)nc(N)c1Cl [Compound 47] | 0 to 29 |

Same assay, conditions: post-emergence, 336 h, SORVU: grain sorghum (Sorghum vulgare), 140 g ai/ha, 14 days after application, read-out: Visual Growth Reduction (%) 14 Days After Application SORVU

| Compound | pest or weed control at 140 g/ha [%] |
| --- | --- |
| COC(=O)c1nc(-c2ccc(C(F)(F)F)nc2F)nc(N)c1Cl [Compound 47] | 0 to 29 |

Same assay, conditions: post-emergence, 336 h, TRZSS (crop), 70 g ai/ha, 14 days after application, read-out: Visual Growth Reduction (%) 14 Days After Application TRZSS

| Compound | pest or weed control at 70 g/ha [%] |
| --- | --- |
| COC(=O)c1nc(-c2ccc(C(F)(F)F)nc2F)nc(N)c1Cl [Compound 47] | 0 to 29 |

Same assay, conditions: post-emergence, 336 h, TRZSS (crop), 140 g ai/ha, 14 days after application, read-out: Visual Growth Reduction (%) 14 Days After Application TRZSS

| Compound | pest or weed control at 140 g/ha [%] |
| --- | --- |
| COC(=O)c1nc(-c2ccc(C(F)(F)F)nc2F)nc(N)c1Cl [Compound 47] | 0 to 29 |

Same assay, conditions: post-emergence, 336 h, ZEAMX: maize, corn (Zea mays), 70 g ai/ha, 14 days after application, read-out: Visual Growth Reduction (%) 14 Days After Application ZEAMX

| Compound | pest or weed control at 70 g/ha [%] |
| --- | --- |
| COC(=O)c1nc(-c2ccc(C(F)(F)F)nc2F)nc(N)c1Cl [Compound 47] | 0 to 29 |

Same assay, conditions: post-emergence, 336 h, ZEAMX: maize, corn (Zea mays), 140 g ai/ha, 14 days after application, read-out: Visual Growth Reduction (%) 14 Days After Application ZEAMX

| Compound | pest or weed control at 140 g/ha [%] |
| --- | --- |
| COC(=O)c1nc(-c2ccc(C(F)(F)F)nc2F)nc(N)c1Cl [Compound 47] | 0 to 29 |

Tested on: not given
Experiment: not given
Conditions: not given

| melting point [°C] | Compound |
| --- | --- |
| 150 to 153 | COC(=O)c1nc(-c2ccc(C(F)(F)F)nc2F)nc(N)c1Cl [Compound 47] |
